#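 GI50 is the concentration that inhibits growth by half. The concentration for full growth arrest is given as TGI.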
# How the values were obtained:
# Test in all cases: growth of human tumour cells (NCI), 384-well format
# [1] = tested on: BT-549 breast
# [2] = tested on: IGROV1 ovarian
# [3] = tested on: NCI-H522 lung
# [4] = tested on: A498 renal
# [5] = tested on: MOLT-4 leukemia
# [6] = tested on: M14 melanoma
# [7] = tested on: SK-MEL-28 melanoma
# [8] = tested on: UACC-62 melanoma
# [9] = tested on: NCI-H322M lung
# [10] = tested on: NCI-H460 NSCLC
# [11] = tested on: HL-60(TB) leukemia
# [12] = tested on: PC-3 prostate
# [13] = tested on: HCT-15 colon
# [14] = tested on: OVCAR-5 ovarian
# [15] = tested on: SN12C renal
# [16] = tested on: MALME-3M melanoma
# [17] = tested on: COLO 205 colon
# [18] = tested on: SF-295 CNS
# [19] = tested on: UACC-257 melanoma
# [20] = tested on: SF-268 CNS
# [21] = tested on: MCF7 breast
# [22] = tested on: NCI-H23 lung
# [23] = tested on: MDA-MB-468 breast
# [24] = tested on: MDA-MB-231 breast
# [25] = tested on: LOX IMVI melanoma
# [26] = tested on: OVCAR-4 ovarian
# [27] = tested on: K-562 leukemia
# [28] = tested on: NCI-H226 lung
# [29] = tested on: RPMI-8226 leukemia
# [30] = tested on: HOP-92 NSCLC
# [31] = tested on: A549 NSCLC
# [32] = tested on: SR leukemia
# [33] = tested on: SNB-75 CNS
# [34] = tested on: NCI/ADR-RES ovarian
# [35] = tested on: SK-MEL-5 melanoma
# [36] = tested on: 786-0 renal
# [37] = tested on: SF-539 CNS
# [38] = tested on: ACHN renal
# [39] = tested on: SNB-19 CNS
# [40] = tested on: T-47D breast
# [41] = tested on: RXF 393 renal
# [42] = tested on: HT29 colon
# [43] = tested on: HS 578T breast
# [44] = tested on: MDA-MB-435 melanoma
# [45] = tested on: OVCAR-8 ovarian
# [46] = tested on: OVCAR-3 ovarian
# [47] = tested on: SK-MEL-2 melanoma
# [48] = tested on: DU-145 prostate
# [49] = tested on: HOP-62 NSCLC
# [50] = tested on: CAKI-1 renal
# [51] = tested on: U251 glioblastoma
# [52] = tested on: CCRF-CEM leukemia
# [53] = tested on: EKVX NSCLC
# [54] = tested on: SK-OV-3 ovarian
# [55] = tested on: HCC-2998 colon
# [56] = tested on: HCT-116 colon
# [57] = tested on: SW-620 colon
# [58] = tested on: TK-10 renal
# [59] = tested on: KM12 colon
structure (smiles),measurement,setting,value
N#Cc1ccc(-c2c(-c3ncn[nH]3)sc(N3CCOCC3)c2C#N)c(F)c1,GI50,[1],1.95 µM
same,TGI,[1],12.8 µM
same,GI50,[2],0.191 µM
same,TGI,[2],0.631 µM
same,GI50,[3],1.98 µM
same,TGI,[3],17.3 µM
same,GI50,[4],0.577 µM
same,TGI,[4],2.67 µM
same,GI50,[5],0.413 µM
same,TGI,[5],1.71 µM
same,GI50,[6],2.95 µM
same,TGI,[6],31.8 µM
same,GI50,[7],1.76 µM
same,TGI,[7],> 67.9 µM
same,GI50,[8],1.01 µM
same,TGI,[8],10.8 µM
same,GI50,[9],1.32 µM
same,TGI,[9],5.36 µM
same,GI50,[10],0.68 µM
same,TGI,[10],11.4 µM
same,GI50,[11],0.209 µM
same,TGI,[11],1.44 µM
same,GI50,[12],0.641 µM
same,TGI,[12],8.87 µM
same,GI50,[13],1.69 µM
same,TGI,[13],15.9 µM
same,GI50,[14],1.01 µM
same,TGI,[14],26.1 µM
same,GI50,[15],0.145 µM
same,TGI,[15],3.77 µM
same,GI50,[16],0.95 µM
same,TGI,[16],6.92 µM
same,GI50,[17],1.65 µM
same,TGI,[17],17.4 µM
same,GI50,[18],1.24 µM
same,TGI,[18],15.7 µM
same,GI50,[19],2.51 µM
same,TGI,[19],15.1 µM
same,GI50,[20],4.1 µM
same,TGI,[20],33 µM
same,GI50,[21],0.222 µM
same,TGI,[21],20.6 µM
same,GI50,[22],2.35 µM
same,TGI,[22],> 55.3 µM
same,GI50,[23],0.54 µM
same,TGI,[23],2.68 µM
same,GI50,[24],5.88 µM
same,TGI,[24],> 62.6 µM
same,GI50,[25],1.93 µM
same,TGI,[25],13.5 µM
same,GI50,[26],1.96 µM
same,TGI,[26],22.1 µM
same,GI50,[27],6.27 µM
same,TGI,[27],> 100 µM
same,GI50,[28],2.01 µM
same,TGI,[28],17.3 µM
same,GI50,[29],1.82 µM
same,TGI,[29],5.06 µM
same,GI50,[30],1.16 µM
same,TGI,[30],> 33 µM
same,GI50,[31],1.35 µM
same,TGI,[31],11.8 µM
same,GI50,[32],0.763 µM
same,TGI,[32],2.57 µM
same,GI50,[33],0.32 µM
same,GI50,[34],5.53 µM
same,TGI,[34],63.6 µM
same,GI50,[35],1.77 µM
same,TGI,[35],10 µM
same,GI50,[36],2.13 µM
same,TGI,[36],11.5 µM
same,GI50,[37],1.7 µM
same,TGI,[37],20 µM
same,GI50,[38],0.525 µM
same,TGI,[38],14.2 µM
same,GI50,[39],14.7 µM
same,TGI,[39],> 70.8 µM
same,GI50,[40],0.152 µM
same,TGI,[40],2.54 µM
same,GI50,[41],1.27 µM
same,TGI,[41],7.45 µM
same,GI50,[42],0.9 µM
same,TGI,[42],17.9 µM
same,GI50,[43],0.779 µM
same,TGI,[43],16 µM
same,GI50,[44],2.47 µM
same,TGI,[44],19.5 µM
same,GI50,[45],3.52 µM
same,TGI,[45],> 60.2 µM
same,GI50,[46],0.837 µM
same,TGI,[46],5.83 µM
same,GI50,[47],2.64 µM
same,TGI,[47],12.6 µM
same,GI50,[48],1.91 µM
same,TGI,[48],15.1 µM
same,GI50,[49],3.4 µM
same,TGI,[49],21 µM
same,GI50,[50],0.557 µM
same,TGI,[50],13.2 µM
same,GI50,[51],7.2 µM
same,TGI,[51],> 80.6 µM
same,GI50,[52],2.21 µM
same,TGI,[52],9.61 µM
same,GI50,[53],0.368 µM
same,TGI,[53],3.44 µM
same,GI50,[54],0.315 µM
same,TGI,[54],5.89 µM
same,GI50,[55],1.23 µM
same,TGI,[55],10.8 µM
same,GI50,[56],1.52 µM
same,TGI,[56],38.5 µM
same,GI50,[57],4.94 µM
same,TGI,[57],23.6 µM
same,GI50,[58],0.789 µM
same,TGI,[58],9.59 µM
same,GI50,[59],3.64 µM
same,TGI,[59],20.3 µM

# From PubChem BioAssay (NCI)
